Data published in patent US9650616B2, “Methods for increasing grain yield” (University of Florida Research Foundation, Inc., priority 2014, dated 2017).
Numbering of substitutions follows the chain as printed.

Assays:
[1] = target: T1, maize endosperm AGPase variant T142F (Zea mays, UniProt P55241+Q84PF5, T142F); assay: Apparent kinetic constants with 3-PGA, 37° C., T142F; assay type: biochemical; conditions: read-out: ATP Km, with 3-PGA, 37° C.
T1 construct: data of Boehlein et al., 2013
T1 sequence (P55241 46-516 T142F): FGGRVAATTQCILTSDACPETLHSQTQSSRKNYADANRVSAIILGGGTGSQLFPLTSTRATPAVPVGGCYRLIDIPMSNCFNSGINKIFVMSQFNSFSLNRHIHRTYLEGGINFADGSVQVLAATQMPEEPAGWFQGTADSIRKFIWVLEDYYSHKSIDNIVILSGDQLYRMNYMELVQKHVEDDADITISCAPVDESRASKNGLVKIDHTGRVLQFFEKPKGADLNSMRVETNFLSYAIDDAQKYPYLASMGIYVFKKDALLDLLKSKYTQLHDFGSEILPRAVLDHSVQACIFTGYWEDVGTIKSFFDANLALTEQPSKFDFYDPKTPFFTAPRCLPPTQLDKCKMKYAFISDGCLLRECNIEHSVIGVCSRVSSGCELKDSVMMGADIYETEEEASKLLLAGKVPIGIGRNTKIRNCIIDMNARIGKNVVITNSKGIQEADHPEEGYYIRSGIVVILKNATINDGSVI
T1 sequence (Q84PF5 1-474): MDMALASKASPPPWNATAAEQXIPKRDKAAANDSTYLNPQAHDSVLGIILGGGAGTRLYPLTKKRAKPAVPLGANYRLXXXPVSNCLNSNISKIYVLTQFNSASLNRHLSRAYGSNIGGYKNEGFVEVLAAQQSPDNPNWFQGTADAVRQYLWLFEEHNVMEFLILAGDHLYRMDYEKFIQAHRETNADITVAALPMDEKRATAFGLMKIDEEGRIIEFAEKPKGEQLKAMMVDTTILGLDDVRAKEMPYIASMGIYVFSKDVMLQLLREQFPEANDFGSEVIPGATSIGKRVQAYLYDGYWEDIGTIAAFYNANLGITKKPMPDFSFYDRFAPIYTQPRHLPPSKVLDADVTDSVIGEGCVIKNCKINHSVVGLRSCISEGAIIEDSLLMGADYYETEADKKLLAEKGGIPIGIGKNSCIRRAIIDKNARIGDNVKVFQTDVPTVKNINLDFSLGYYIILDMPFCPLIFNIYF
Procedure: An endpoint assay was used to determine the rate of the AGPase reaction by coupling the formation of PPi to a decrease in NADH concentration (Boehlein et al., 2008). […] The Michaelis constants (Km) were obtained by varying one substrate in the presence of saturating concentrations of the second substrate. The activation constants were obtained by varying the activator at fixed levels of both substrates. All reactions were performed at 37° C. and mixes were prewarmed before starting the reaction with enzyme. […] The absorbance at 340 nm was monitored after 30 min and the amount of PPi produced was determined from a standard curve using PPi in complete reaction mixtures lacking AGPase. Blank samples contained complete reaction mixtures without enzyme and the change in absorbance between the blank and the reaction was used to calculate the amount of PPi produced. […]
The apparent Michaelis constant and maximum velocity of each reaction was calculated from a V vs. S plots using nonlinear regression analysis and the following equation, v=VmaxS/(Km+S), where v is the measured velocity, Vmax is the maximum velocity, S is the substrate concentration. […]
Each mutant, comprising 1, 2, 3 or 4 changes, was grown in a large scale culture, expressed and purified according to standard procedures (Boehlein et al., 2005). […] Next, the activation constant, Ka, was determined for each of the mutant enzymes. […]

[2] = target: T2, maize endosperm AGPase, large subunit variant D161G (numbering of SEQ ID NO: 20) (Zea mays, UniProt P55241+Q84PF5, D161G); assay: Kinetic constants in the absence of 3-PGA, D161G; assay type: biochemical
T2 sequence (P55241 46-516 D161G): T1 sequence (P55241 46-516 T142F) with F97T, D116G
T2 sequence (Q84PF5 1-474): T1 sequence (Q84PF5 1-474)
Procedure: Reactions were performed for 10 min and terminated by boiling. Blank mixtures contained everything except ATP.
Based on the kinetic results (Table 10) and catalytic properties at 55° C. (Table 10) both D161G and GGR were selected for a more detailed kinetic analysis. […] The GGR mutant was primarily chosen based on its increased catalytic rate at 37° C. and high performance at 55° C. Its high activity in the absence of 3-PGA was also paramount. The first kinetic parameters determined were the Michaelis constants, the catalytic rate (kcat) and the dissociation constant (Kia) for the E-ATP complex, in the absence of 3-PGA. […] For the wt maize enzyme, this activator primarily responds by reducing the Km for both substrates, with little effect on the reaction rate (Boehlein et al., 2013). […] The kinetic mechanism established ATP as the first substrate to bind, thus the activator is no longer necessary for this first step. […] This variant also conditions both heat stability and high activity in the absence of an activator.

Nc1ncnc2c1ncn2[C@@H]1O[C@H](COP(=O)(O)OP(=O)(O)OP(=O)(O)O)[C@@H](O)[C@H]1O [ATP]
Km [1]: 200 µM
decrease of Km for ATP compared to wild-type [2]: ~100 ×
kcat ([2]; ATP varied at fixed G-1-P): 48.8 s⁻¹
Km ([2]; read-out: ATP Km): 43 µM
